Measured values from patent publication US8383817B2, “Benztropine compounds and uses thereof” (The United States of America, as represented by the …, priority 2005, dated 2013).
Where two headings read alike, the source gives them in different places.

Tests used:
SERT [1] = target: T1, SERT (Rattus norvegicus, UniProt P31652); test: [3H]Citalopram Binding Assay, rat midbrain membranes; conditions: for Ki: rat brain membranes, read-out: SERT [3H]citalopram Ki ± SEM
T1 construct: Membranes from frozen rat midbrain were homogenized; from tissue; host or cells: rat midbrain membranes

muscarinic M1 receptor [2] = target: T2, muscarinic M1 receptor (Rattus norvegicus, UniProt P08482); test: [3H]Pirenzepine Binding Assay, rat brain membranes
T2 construct: Membranes from frozen rat brains excluding cerebellum were thawed; from tissue; host or cells: rat brain (excluding cerebellum) membranes
T2 sequence (P08482 1-460): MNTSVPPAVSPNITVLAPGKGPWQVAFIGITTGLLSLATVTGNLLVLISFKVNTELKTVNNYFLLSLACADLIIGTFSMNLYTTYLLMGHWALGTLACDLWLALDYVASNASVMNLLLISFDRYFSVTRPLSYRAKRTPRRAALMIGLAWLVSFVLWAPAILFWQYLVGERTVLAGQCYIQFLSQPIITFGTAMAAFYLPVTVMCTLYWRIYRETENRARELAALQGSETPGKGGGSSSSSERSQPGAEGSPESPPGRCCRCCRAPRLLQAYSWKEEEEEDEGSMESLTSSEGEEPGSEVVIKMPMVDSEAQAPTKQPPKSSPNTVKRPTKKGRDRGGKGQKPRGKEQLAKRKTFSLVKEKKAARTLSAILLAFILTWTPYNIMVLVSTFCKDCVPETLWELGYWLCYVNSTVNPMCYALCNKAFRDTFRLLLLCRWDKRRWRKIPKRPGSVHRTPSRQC

NET [3] = format: binding, rat
DAT [4] = target: T3, DAT (Rattus norvegicus, UniProt P23977); test: biochemical; format: binding; conditions: read-out: DAT [3H]WIN 35,428 Ki ± SEM
T3 construct: their brains removed to an ice-cooled dish for dissection of the caudate putamen; from tissue; host or cells: rat caudate putamen homogenate

NET [5] = target: NET (Rattus norvegicus, UniProt Q63380); conditions: read-out: NET [3H]nisoxetine Ki ± SEM; comparative data taken from Agoston et al. 1997; cited from earlier work
[6] = Model For Reducing Effect of Nicotine (nicotine discrimination); format: in vivo, rat; conditions: rats; dose 3.0 mg/kg; nicotine only control 50%
Text: Model For Reducing Effect of Nicotine. Food-deprived rats were trained to press one lever for a food pellet after nicotine administration and a second lever after vehicle administration. Pellets of food were delivered intermittently, so that every twentieth response produced food. Using this procedure, the only cue for the rat regarding which lever occasionally pays off with a food pellet, is the subjective effect of the nicotine. When the rats were accurately and reliably identifying the nicotine injections (approximately all of its responses on the lever that occasionally pays off after nicotine or saline), testing began. The rats were pretreated with a compound of Formula III before nicotine injection, and the experiment progressed as described above, except responses on either lever intermittently produced food. A 50% effective nicotine dose was reduced to low levels of effectiveness upon administration of a compound of Formula III.

SERT [7] = target: T1, SERT; conditions: read-out: SERT [3H]citalopram Ki ± SEM, cited from earlier work
DAT [8] = target: T3, DAT
muscarinic M1 receptor [9] = target: T2, muscarinic M1 receptor; conditions: read-out: M1 [3H]pirenzepine Ki ± SEM, cited from earlier work
[10] = target: T4, dopaminergic transporter sites (Mus musculus, UniProt Q61327); test: In vivo binding of [125I]RTI-121 (displacement in striatum); conditions: mice
T4 construct: Whole brains were rapidly removed and striatum and cerebellum were dissected on ice; from tissue; host or cells: mouse striatum, in vivo occupancy
Text: In vivo binding of [^125I]RTI-121. Each animal received an i.v. injection of 2 μCi of [^125I]RTI-121. Two hours after administration of [^125I]RTI-121, the animals were sacrificed by cervical dislocation. In each mouse, displacement of [^125I]RTI-121 was examined by giving an i.p. injection of one of the displacers at various doses and times relative to sacrifice, Displacement by test drugs at various doses was examined at various times after their injection, with each data point determined in sets of approximately six mice. Whole brains were rapidly removed and striatum and cerebellum were dissected on ice.
Regional radioactivity levels were divided by weight (gram) of the tissue (CPM/tissue weight). Specific binding was calculated as CPM/tissue weight in striatum divided by cerebellum minus 1 (S/C−1), which is based on the observation that dopaminergic transporter sites are highly concentrated in the striatum and relatively absent in the cerebellum. These values were expressed as a percentage of specific binding after vehicle injection. Data were analyzed using two-way analysis of variance (ANOVA), and a post-hoc Tukey's test was used to determine significance of effects for individual doses at different time periods following IP injection of compound 1a (FIG. 3A), 1b (FIG. 3B), MFZ 2-74 (R^1=Me; R^2,3=F; R^4=CO2-^iPr) (FIG. 3C), 15 (FIG. 3D), and 14 (FIG. 3E). […]

[11] = rat brain membranes, read-out: M1 [3H]pirenzepine Ki ± SEM
[12] = ratio of respective Ki values, greater than 1 = DAT selective
[13] = comparative data taken from Agoston et al. 1997

T3 sequence (P23977 whole entry): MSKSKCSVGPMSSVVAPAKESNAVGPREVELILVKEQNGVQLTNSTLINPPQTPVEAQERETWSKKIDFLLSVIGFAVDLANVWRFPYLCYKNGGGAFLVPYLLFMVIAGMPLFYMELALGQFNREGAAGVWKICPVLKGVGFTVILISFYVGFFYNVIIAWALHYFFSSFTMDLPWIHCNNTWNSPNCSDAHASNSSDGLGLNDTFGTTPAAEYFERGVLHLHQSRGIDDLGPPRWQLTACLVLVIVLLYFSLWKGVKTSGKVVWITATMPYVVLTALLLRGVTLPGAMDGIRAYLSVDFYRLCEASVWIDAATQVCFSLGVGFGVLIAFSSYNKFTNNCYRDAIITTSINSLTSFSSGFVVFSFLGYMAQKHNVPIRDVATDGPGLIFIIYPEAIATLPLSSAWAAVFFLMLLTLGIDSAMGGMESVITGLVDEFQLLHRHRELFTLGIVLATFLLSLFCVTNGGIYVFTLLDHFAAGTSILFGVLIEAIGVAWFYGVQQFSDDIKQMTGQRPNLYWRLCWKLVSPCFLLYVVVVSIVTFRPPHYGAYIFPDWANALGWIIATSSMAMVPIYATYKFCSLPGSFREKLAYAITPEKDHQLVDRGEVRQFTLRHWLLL
T1 sequence (P31652 whole entry): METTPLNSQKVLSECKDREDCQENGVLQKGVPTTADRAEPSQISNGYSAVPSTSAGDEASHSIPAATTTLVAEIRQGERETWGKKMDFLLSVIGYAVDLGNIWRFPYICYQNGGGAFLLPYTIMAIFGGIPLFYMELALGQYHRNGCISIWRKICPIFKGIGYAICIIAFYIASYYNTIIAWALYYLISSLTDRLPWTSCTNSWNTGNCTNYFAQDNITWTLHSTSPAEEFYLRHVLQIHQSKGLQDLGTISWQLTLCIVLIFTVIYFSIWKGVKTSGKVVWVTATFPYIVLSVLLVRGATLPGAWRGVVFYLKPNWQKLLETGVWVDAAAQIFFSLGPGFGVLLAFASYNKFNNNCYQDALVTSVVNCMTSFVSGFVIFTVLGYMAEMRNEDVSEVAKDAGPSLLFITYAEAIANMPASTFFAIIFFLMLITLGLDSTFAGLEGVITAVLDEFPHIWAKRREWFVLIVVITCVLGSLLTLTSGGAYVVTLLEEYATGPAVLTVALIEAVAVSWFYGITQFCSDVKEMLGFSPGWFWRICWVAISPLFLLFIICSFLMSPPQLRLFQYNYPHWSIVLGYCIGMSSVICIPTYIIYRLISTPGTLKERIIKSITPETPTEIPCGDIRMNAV
NET (Rattus norvegicus, UniProt Q63380), sequence (Q63380 1-617): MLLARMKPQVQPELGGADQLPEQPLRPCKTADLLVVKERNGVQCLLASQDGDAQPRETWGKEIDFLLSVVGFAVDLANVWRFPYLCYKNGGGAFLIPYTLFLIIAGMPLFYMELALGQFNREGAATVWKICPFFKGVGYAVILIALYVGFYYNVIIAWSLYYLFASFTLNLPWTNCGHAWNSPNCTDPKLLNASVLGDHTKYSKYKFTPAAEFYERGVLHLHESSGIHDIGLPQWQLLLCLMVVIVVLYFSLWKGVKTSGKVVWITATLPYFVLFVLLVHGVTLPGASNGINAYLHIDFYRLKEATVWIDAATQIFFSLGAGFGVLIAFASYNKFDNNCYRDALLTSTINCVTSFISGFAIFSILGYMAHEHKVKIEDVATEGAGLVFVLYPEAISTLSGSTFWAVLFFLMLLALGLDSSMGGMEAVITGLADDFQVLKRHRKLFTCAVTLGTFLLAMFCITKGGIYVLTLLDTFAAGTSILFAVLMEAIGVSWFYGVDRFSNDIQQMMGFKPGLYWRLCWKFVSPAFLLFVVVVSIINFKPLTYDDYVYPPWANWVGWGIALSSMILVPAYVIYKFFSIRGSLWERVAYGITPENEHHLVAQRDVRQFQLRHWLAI
T4 sequence (Q61327 whole entry): as the sequence (P23977 whole entry) above, with S21P, A57V, A194S, H600R, L619V counted along it

For `CN1[C@@H]2CC[C@H]1[C@H](COC(=O)CCCc1ccc([N+](=O)[O-])cc1)[C@@H](OC(c1ccc(F)cc1)c1ccc(F)cc1)C2` [Compound 7, S-(+)-2β-{[4-(4′-Nitrophenyl)butyryl]oxymethyl}-3α-[bis(4-fluorophenyl)methoxy]tropane], the Ki (SERT [1]) was 3780 ± 390 nM and the Ki (muscarinic M1 receptor [2]) was 0.708 ± 0.102 µM.
In the case of `CN1C2CCC1[C@@H](COC(=O)CCCc1ccc(N)cc1)[C@@H](OC(c1ccc(F)cc1)c1ccc(F)cc1)C2` (stereo partly drawn) [Compound 8, S-(−)-2β-{[4-(4′-Aminophenyl)butyryl]oxymethyl}-3α-[bis(4-fluorophenyl)methoxy]tropane], the “Binding selectivity DAT/SERT” value (SERT [1]) is reported as 50, the Ki (SERT [1]) is reported as 1390 ± 145 nM and the “Binding selectivity DAT/NET” value (NET [3]) is reported as 16. The Ki (DAT [4]) was 27.6 ± 0.85 nM, the “Binding selectivity DAT/M1” value (muscarinic M1 receptor [2]) was 12 and the Ki (muscarinic M1 receptor [2]; [11]) was 0.342 ± 0.0337 µM. For the same compound, the “Binding selectivity DAT/M1” value (muscarinic M1 receptor [2]; [12]) was “reduced DAT/M1 selectivity”.
For `CCOC(=O)[C@@H]1C2CCC(C[C@@H]1OC(c1ccc(F)cc1)c1ccc(F)cc1)N2` (stereo partly drawn) [Compound 9, S-(+)-N-nor-2β-Carboethoxy-3α-[bis(4-fluorophenyl)methoxy]tropane], the Ki (SERT [1]) was 2150 ± 222 nM, the “Binding selectivity DAT/SERT” value (SERT [1]; [12]) was 242 and the “Binding selectivity DAT/NET” value (NET [3]; [12]) was 63. The Ki (DAT [4]) was 8.87 ± 1.02 nM and the Ki (muscarinic M1 receptor [2]; [11]) was 17.1 ± 2.48 µM.
For `CCCCN1C2CCC1[C@@H](C(=O)OCC)[C@@H](OC(c1ccc(F)cc1)c1ccc(F)cc1)C2` (stereo partly drawn) [Compound 10, S-(+)-N-Butyl-2β-carboethoxy-3α-[bis(4-fluorophenyl)methoxy]tropane], the Ki (SERT [1]) was 2500 ± 327 nM, the “Binding selectivity DAT/SERT” value (SERT [1]; [12]) was 305 and the “Binding selectivity DAT/NET” value (NET [3]; [12]) was 71. For the same compound, the Ki (DAT [4]) was 8.18 ± 0.17 nM, the Ki (muscarinic M1 receptor [2]; [11]) was 3.2 ± 0.298 µM and the “Binding selectivity DAT/M1” value (muscarinic M1 receptor [2]; [12]) was 391.
For `C=CCN1C2CCC1[C@@H](C(=O)OCC)[C@@H](OC(c1ccc(F)cc1)c1ccc(F)cc1)C2` (stereo partly drawn) [Compound 11, S-(+)-N-Allyl-2β-carboethoxy-3α-[bis(4-fluorophenyl)methoxy]tropane], the Ki (SERT [1]) was 2280 ± 125 nM, the “Binding selectivity DAT/SERT” value (SERT [1]; [12]) was 207 and the “Binding selectivity DAT/NET” value (NET [3]; [12]) was 85. For the same compound, the Ki (DAT [4]) was 11 ± 0.94 nM, the Ki (muscarinic M1 receptor [2]; [11]) was 11.4 ± 1.65 µM and the “Binding selectivity DAT/M1” value (muscarinic M1 receptor [2]; [12]) was 1036.
For `CCCCN1[C@@H]2CC[C@H]1C[C@@H](OC(c1ccc(F)cc1)c1ccc(F)cc1)C2` [Compound 12], the “Binding selectivity DAT/SERT” value (SERT [1]; [12]) is given as 139, the “Binding selectivity DAT/NET” value (NET [3]; [12]) is given as 153 and the Ki (NET [5]) is given as 1490 ± 190 nM. The “Effect (of a 50% effective nicotine dose after pretreatment)” value [6] was 2.67%, the Ki (SERT [7]) was 1350 ± 151 nM and the Ki (DAT [8]; comparative data taken from Agoston et al. 1997; read-out: DAT [3H]WIN 35,428 Ki ± SEM; cited from earlier work) was 9.7 ± 0.91 nM. The “Binding selectivity DAT/M1” value (muscarinic M1 receptor [2]; [12]) was 41 and the Ki (muscarinic M1 receptor [9]) was 399 ± 26.8 nM.
For `C=CCN1[C@@H]2CC[C@H]1C[C@@H](OC(c1ccc(F)cc1)c1ccc(F)cc1)C2` [Compound 13], the “Binding selectivity DAT/SERT” value (SERT [1]; [12]) is given as 324, the “Binding selectivity DAT/NET” value (NET [3]; [12]) is given as 178 and the Ki (NET [5]) is given as 1570 ± 242 nM. The “Effect (of a 50% effective nicotine dose after pretreatment)” value [6] was 22.4%, the Ki (SERT [7]; [13]) was 2850 ± 62.5 nM and the Ki (DAT [8]; read-out: DAT [3H]WIN 35,428 Ki ± SEM; comparative data taken from Agoston et al. 1997; cited from earlier work) was 8.79 ± 0.52 nM. The “Binding selectivity DAT/M1” value (muscarinic M1 receptor [2]; [12]) was 20 and the Ki (muscarinic M1 receptor [9]; [13]) was 177 ± 21.1 nM.
For `CC(C)OC(=O)C1C(OC(c2ccc(F)cc2)c2ccc(F)cc2)CC2CCC1N2C` (centres unmarked) [MFZ 2-74], the “Time of maximal displacement of [125I]RTI-121 after injection” value ([10]; IP injection of displacer, striatum vs cerebellum, FIG. 3) was “not obtained” and the “Time at which maximal displacement of [125I]RTI-121 would likely be obtained” value ([10]; IP injection, FIG. 3C, maximal displacement not obtained in the test) was over 3 h.
